This is an account of results in patent US6949543B2, “Amide derivative” (Yamanouchi Pharmaceutical Co., Ltd., priority 2000, dated 2005).

This assay concerns VZV (strain CaQu). The experiment in a line: Anti-VZV activity assay (plaque reduction in HEF cells). The note with it: Human alphaherpesvirus 3, 3 to 4 days culture, plaque count, read-out: EC50 (concentration to inhibit 50% of the plaques). The class given is cell-based, varicella zoster virus. As for the experimental part:
This assay was carried out in accordance with the method described by Shigeta S. (The Journal of Infectious Diseases, 147, 3, 576-584 (1983). Illustratively, HEF cells were seeded a 96 well microtiter plate at 10,000 cells per well using a propagation medium and cultured at 37° C. for 4 days in an atmosphere of 5% CO2 until monolayers were formed. After washing the cells with a maintaining medium, the cells were inoculated with 100 μl/well of VZV (strain CaQu) which had been diluted to 20 to 30 pfu/100 μl with the maintaining medium. The plate was centrifuged at 2,000 rpm for 20 minutes at room temperature and then incubated at 37° C. for 3 hours in an atmosphere of 5% CO2 to infect with VZV. After washing three times with 100 μl/well of the maintaining medium, 100 μl of each test drug diluted to an appropriate concentration with the maintaining medium was added to each well. After culturing the cells at 37° C. for 3 to 4 days in an atmosphere of 5% CO2, the cells were fixed with 100 μl/well of 10% formalin/PBS for 2 to 3 hours. After discarding the fixing solution and culture supernatant and subsequently washing the plate with water, a staining solution (0.025% Crystal Violet) was added in 50 μl/well to carry out 2 to 3 minutes for staining, and then the plate was washed with water and dried at 37° C. The HEF cells infected with VZV cause cell death, and plaques comprising dead cells are formed in the monolayer HEF cells. The number of plaques was counted under a microscope, and EC50 value of the test drug was calculated as a concentration to inhibit 50% of the plaques.

In the case of `Nc1nc2c(ncn2COCCO)c(=O)[nH]1` [ACV, Acyclovir, reference compound], the EC50 was found to be 4.3 µM.

As to `Nc1nc(-c2ccc(NC(=O)CN(C(=O)c3ccncc3)c3ccc4scnc4c3)cc2)cs1` [Example 108], the EC50 was found to be 0.025 µM.

Take `Nc1nc(-c2ccc(NC(=O)CN(C(=O)C3CCOCC3)c3ccc4scnc4c3)cc2)cs1` [Example 110]: the EC50 turned out to be 0.049 µM.

For the molecule `Nc1nc(-c2ccc(NC(=O)CN(C(=O)C3CCSCC3)c3ccc4scnc4c3)cc2)cs1` [Example 111], the EC50 is 0.026 µM. Take `Nc1nc(-c2ccc(NC(=O)CN(C(=O)C3CCSc4ccccc43)c3ccc4scnc4c3)cc2)cs1` (stereo not shown) [Example 113]: the EC50 amounted to 0.04 µM. Then `Nc1nc(-c2ccc(NC(=O)CN(C(=O)C3CCCCC3)c3ccc4ncsc4c3)cc2)cs1` [Example 114], with 0.07 µM. Then `Nc1nc(-c2ccc(NC(=O)CN(C(=O)C3CC=C(F)CC3)c3ccc4scnc4c3)cc2)cs1` (stereo not shown) [Example 115], with 0.028 µM. For `Nc1nc(-c2ccc(NC(=O)CN(C(=O)C3CCC(F)(F)CC3)c3ccc4scnc4c3)cc2)cs1` [Example 116], the EC50 came to 0.033 µM. For `Nc1nc(-c2ccc(NC(=O)CN(C(=O)c3ccc(F)nc3)c3ccc4scnc4c3)cc2)cs1` [Example 117] the value was 0.065 µM; for `Nc1nc(-c2ccc(NC(=O)CN(C(=O)c3ccncn3)c3ccc4scnc4c3)cc2)cs1` [Example 118], 0.059 µM.
